Measured values reported in ChEMBL document CHEMBL5120865, “Exploration of 6-methyl-7-(Hetero)Aryl-7-Deazapurine ribonucleosides as antileishmanial agents” (Eur J Med Chem, 2022).

Key:
[1] = Cytotoxicity against Swiss mouse peritoneal macrophages assessed as reduction in cell viability measured after 5 days by microscopic analysis; type: toxicity, cell-based, Peritoneal macrophage; conditions: time 5 day
[2] = tested on: Leishmania infantum; test: Antileishmanial activity against intracellular Leishmania infantum MHOM/MA(BE)/67 ITMAP263 amastigotes infected in Swiss mouse peritoneal macrophage assessed as inhibition of parasite growth measured after 5 days by geimsa staining based microscopic analysis; type: functional, organism-based; conditions: MHOM/MA(BE)/67 ITMAP263, Peritoneal macrophage, 120 h
[3] = Cytotoxicity against human MRC5 cells assessed as reduction in cell viability incubated for 3 days by resazurin dye based fluorescence analysis; type: toxicity; conditions: time 3 day
[4] = Selectivity index, ratio of CC50 for Cytotoxicity against Swiss mouse peritoneal macrophages to EC50 for intracellular Leishmania infantum MHOM/MA(BE)/67 ITMAP263 amastigotes infected in Swiss mouse peritoneal macrophages; type: toxicity, cell-based; conditions: read-out: Ratio CC50/EC50
[5] = Selectivity index, ratio of CC50 for cytotoxicity against human MRC5 cells to EC50 for Trypanosoma cruzi Tulahuen CL2 amastigotes expressing beta galactosidase infected in human MRC5 cells; type: toxicity, cell-based; conditions: read-out: Ratio CC50/EC50
[6] = tested on: Trypanosoma cruzi; test: Antitrypanosomal activity against nifurtimox-sensitive Tulahuen CL2 amastigotes expressing beta galactosidase infected in human MRC5 cells assessed as inhibition of parasite growth using chlorophenol red beta-D-galactopyranoside as substrate and measured after 7 days by spectrophotometric analysis; type: functional, organism-based; conditions: Tulahuen CL2, MRC5, 168 h

| SMILES | CC50 at 120 h [1] | EC50 [2] | CC50 at 72 h [3] | selectivity ratio [4] | selectivity ratio [5] | EC50 ([6]; read-out: EC50) | EC50 [6] |
| --- | --- | --- | --- | --- | --- | --- | --- |
| Cc1ncnc2c1c(-c1ccoc1)cn2[C@@H]1O[C@H](CO)[C@@H](O)[C@H]1O | > 64 µM | > 64 µM | > 64 µM | – | – | – | – |
| Cc1ncnc2c1c(-c1cccs1)cn2[C@@H]1O[C@H](CO)[C@@H](O)[C@H]1O | 32 µM | 12.7 µM | – | 2.5 | – | – | – |
| Cc1ncnc2c1c(-c1ccsc1)cn2[C@@H]1O[C@H](CO)[C@@H](O)[C@H]1O | > 64 µM | > 64 µM | > 64 µM | – | – | – | – |
| Cc1ncnc2c1c(-c1cc3ccccc3o1)cn2[C@@H]1O[C@H](CO)[C@@H](O)[C@H]1O | 32 µM | 20.3 µM | 45.8 µM | 1.58 | – | – | – |
| Cc1ncnc2c1c(-c1ccccn1)cn2[C@@H]1O[C@H](CO)[C@@H](O)[C@H]1O | > 64 µM | 2.3 µM | > 64 µM | > 27 | > 39 | 1.6 µM | – |
| Cc1ncnc2c1c(-c1cnccn1)cn2[C@@H]1O[C@H](CO)[C@@H](O)[C@H]1O | > 64 µM | 10.1 µM | > 64 µM | > 6.3 | – | – | – |
| Cc1ncnc2c1c(-c1ccc(Cl)nc1)cn2[C@@H]1O[C@H](CO)[C@@H](O)[C@H]1O | > 64 µM | > 64 µM | > 64 µM | – | – | – | – |
| COc1ccccc1-c1cn([C@@H]2O[C@H](CO)[C@@H](O)[C@H]2O)c2ncnc(C)c12 | > 64 µM | 21.1 µM | > 64 µM | > 3 | – | – | – |
| Cc1ncnc2c1c(-c1ccc[nH]1)cn2[C@@H]1O[C@H](CO)[C@@H](O)[C@H]1O | 32 µM | 0.35 µM | 12.9 µM | 91.4 | 19 | 0.68 µM | – |
| Cc1ncnc2c1c(-c1ccccc1N)cn2[C@@H]1O[C@H](CO)[C@@H](O)[C@H]1O | > 64 µM | > 64 µM | > 64 µM | – | – | – | – |
| Cc1ncnc2c1c(-c1cccc3c1N=CC3)cn2[C@@H]1O[C@H](CO)[C@@H](O)[C@H]1O | > 64 µM | 2.1 µM | > 64 µM | > 30 | > 19 | 3.3 µM | – |
| Cc1ncnc2c1c(-c1ccccc1[N+](=O)[O-])cn2[C@@H]1O[C@H](CO)[C@@H](O)[C@H]1O | > 64 µM | > 64 µM | > 64 µM | – | – | – | – |
| COc1ccnc(-c2cn([C@@H]3O[C@H](CO)[C@@H](O)[C@H]3O)c3ncnc(C)c23)c1 | > 64 µM | > 64 µM | > 64 µM | – | – | – | – |
| Cc1ncnc2c1c(-c1cccc3cccnc13)cn2[C@@H]1O[C@H](CO)[C@@H](O)[C@H]1O | > 64 µM | 3.7 µM | > 64 µM | > 17 | > 6.7 | 9.6 µM | – |
| Cc1ncnc2c1c(-c1ccc(Cl)c(F)c1)cn2[C@@H]1O[C@H](CO)[C@@H](O)[C@H]1O | > 64 µM | 7.9 µM | – | > 8 | – | – | – |
| Cc1ncnc2c1c(/C=C/c1ccccn1)cn2[C@@H]1O[C@H](CO)[C@@H](O)[C@H]1O | > 64 µM | 19 µM | > 64 µM | > 3.37 | – | – | – |
| Cc1ncnc2c1c(-c1ccc(Cl)cc1)cn2[C@@H]1O[C@H](CO)[C@@H](O)[C@H]1O | > 64 µM | 16.1 µM | – | > 3.5 | – | – | – |
| Cc1ncnc2c1c(Sc1ccccc1)cn2[C@@H]1O[C@H](CO)[C@@H](O)[C@H]1O | > 64 µM | > 64 µM | > 64 µM | – | – | – | – |
| Cc1ncnc2c1c(CCc1ccccn1)cn2[C@@H]1O[C@H](CO)[C@@H](O)[C@H]1O | > 64 µM | > 64 µM | > 64 µM | – | – | – | – |
| Cc1ncnc2c1c(-c1cccnc1)cn2[C@@H]1O[C@H](CO)[C@@H](O)[C@H]1O | > 64 µM | 22.6 µM | > 64 µM | > 2.8 | – | – | – |
| Cc1ncnc2c1c(-c1cccc(F)n1)cn2[C@@H]1O[C@H](CO)[C@@H](O)[C@H]1O | > 64 µM | > 64 µM | > 64 µM | – | – | – | – |
| Cc1ncnc2c1c(-c1cc3ccccc3[nH]1)cn2[C@@H]1O[C@H](CO)[C@@H](O)[C@H]1O | > 64 µM | 1.7 µM | 14.8 µM | > 36 | 24 | 0.62 µM | – |

| SMILES | CC50 at 120 h [1] | EC50 [2] | CC50 at 72 h [3] | selectivity ratio [4] | selectivity ratio [5] | EC50 ([6]; read-out: EC50) | EC50 [6] |
| --- | --- | --- | --- | --- | --- | --- | --- |
| COc1cc(-c2cn([C@@H]3O[C@H](CO)[C@@H](O)[C@H]3O)c3ncnc(C)c23)ccc1Cl | > 64 µM | 8.76 µM | – | > 7.3 | – | – | – |
| Cc1ncnc2c1c(-c1cc3ccccc3cn1)cn2[C@@H]1O[C@H](CO)[C@@H](O)[C@H]1O | > 64 µM | > 64 µM | > 64 µM | – | – | – | – |
| Cc1ncnc2c1c(-c1cccc3ccn(C)c13)cn2[C@@H]1O[C@H](CO)[C@@H](O)[C@H]1O | > 64 µM | > 64 µM | > 64 µM | – | – | – | – |
| Cc1ncnc2c1c(-c1ccc(C(F)(F)F)cc1)cn2[C@@H]1O[C@H](CO)[C@@H](O)[C@H]1O | > 64 µM | 11.3 µM | – | > 5.6 | – | – | – |
| CSc1ccccc1-c1cn([C@@H]2O[C@H](CO)[C@@H](O)[C@H]2O)c2ncnc(C)c12 | > 64 µM | > 64 µM | > 64 µM | – | – | – | – |
| Cc1ncnc2c1c(C1=CCOCC1)cn2[C@@H]1O[C@H](CO)[C@@H](O)[C@H]1O | > 64 µM | 24.5 µM | – | – | – | – | – |
| Cc1ncnc2c1c(-c1cccc3c1oc1ccccc13)cn2[C@@H]1O[C@H](CO)[C@@H](O)[C@H]1O | > 64 µM | 50.8 µM | 12.7 µM | > 1.2 | – | – | – |
| Cc1ncnc2c1c(-c1cncnc1)cn2[C@@H]1O[C@H](CO)[C@@H](O)[C@H]1O | > 64 µM | 6.5 µM | > 64 µM | > 9.9 | > 8.8 | 7.3 µM | – |
| Cc1ncnc2c1c(-c1ccc(N)cc1)cn2[C@@H]1O[C@H](CO)[C@@H](O)[C@H]1O | > 64 µM | 6.7 µM | – | > 9.5 | – | – | – |
| Cc1ncnc2c1c(-c1ccc(S(C)(=O)=O)cc1)cn2[C@@H]1O[C@H](CO)[C@@H](O)[C@H]1O | > 64 µM | 6.7 µM | – | > 9.5 | – | – | – |
| Cc1ncnc2c1c(-c1cc[nH]n1)cn2[C@@H]1O[C@H](CO)[C@@H](O)[C@H]1O | > 64 µM | 8 µM | 27.9 µM | > 8 | – | – | – |
| Cc1ncnc2c1c(-c1cccc(Cl)n1)cn2[C@@H]1O[C@H](CO)[C@@H](O)[C@H]1O | > 64 µM | 14.2 µM | > 64 µM | > 4.51 | – | – | – |
| Cc1ncnc2c1c(-c1ccc(Cl)cn1)cn2[C@@H]1O[C@H](CO)[C@@H](O)[C@H]1O | > 64 µM | 0.4 µM | 26.3 µM | > 160 | 53 | 0.49 µM | – |
| Cc1ncnc2c1c(-c1ccncc1)cn2[C@@H]1O[C@H](CO)[C@@H](O)[C@H]1O | > 64 µM | > 64 µM | > 64 µM | – | – | – | – |
| Cc1ncnc2c1c(-c1ccccc1F)cn2[C@@H]1O[C@H](CO)[C@@H](O)[C@H]1O | > 64 µM | > 64 µM | > 64 µM | – | – | – | – |
| Cc1ncnc2c1c(-c1ccc3ccccc3n1)cn2[C@@H]1O[C@H](CO)[C@@H](O)[C@H]1O | > 64 µM | > 64 µM | > 64 µM | – | – | – | – |
| Cc1ncnc2c1c(-c1ncccn1)cn2[C@@H]1O[C@H](CO)[C@@H](O)[C@H]1O | > 64 µM | 8.2 µM | > 64 µM | > 7.8 | > 10 | 5.9 µM | – |
| Cc1ncnc2c1c(-c1nccs1)cn2[C@@H]1O[C@H](CO)[C@@H](O)[C@H]1O | 32 µM | 2.07 µM | 6.06 µM | 15.5 | 9.2 | 0.66 µM | – |
| Cc1ncnc2c1c(-c1ccccc1Cl)cn2[C@@H]1O[C@H](CO)[C@@H](O)[C@H]1O | > 64 µM | 20.4 µM | > 64 µM | > 3.1 | – | – | – |
| Cc1ncnc2c1c(-c1cnn(C)c1)cn2[C@@H]1O[C@H](CO)[C@@H](O)[C@H]1O | > 64 µM | 8 µM | > 64 µM | > 8 | – | – | – |
| Oc1ncnc2[nH]ncc12 [ALLOPURINOL] | > 64 µM | 3.5 µM | > 64 µM | > 18 | – | – | – |
| O=C(Cn1ccnc1[N+](=O)[O-])NCc1ccccc1 [BENZNIDAZOLE] | – | – | – | – | – | – | 2.28 µM |
